The values below come from ChEMBL document CHEMBL4823332, “Discovery and Development of Cyclic Peptide Inhibitors of CIB1” (ACS Med Chem Lett, 2021).

Usually IC50 stands for the midpoint of a concentration-inhibition curve.

Molecules are shown by their SMILES. Positions of bridges follow the written chain, without caps; N, C: chain ends. Non-standard residues stand in square brackets, D forms with d. Residues, ends and D or L forms follow the SMILES beside them. NMeW = CN[C@@H](Cc1c[nH]c2ccccc12)C(=O)O; Ala(2-furyl) = N[C@@H](Cc1ccco1)C(=O)O; NMeY = CN[C@@H](Cc1ccc(O)cc1)C(=O)O; hLeu = CC(C)CC[C@H](N)C(=O)O; NMeA = CN[C@@H](C)C(=O)O

The test deals with T1, Calcium and integrin-binding protein 1 (Homo sapiens, UniProt Q99828).
T1 sequence (Q99828 whole entry): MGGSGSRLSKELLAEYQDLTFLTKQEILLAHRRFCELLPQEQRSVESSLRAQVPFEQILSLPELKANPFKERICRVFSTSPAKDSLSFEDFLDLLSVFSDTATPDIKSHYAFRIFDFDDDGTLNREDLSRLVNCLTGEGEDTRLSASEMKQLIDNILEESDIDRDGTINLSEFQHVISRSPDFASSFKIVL
Nature of the test: Displacement of Alexa Fluor 647 labelled UNC10245092 peptide from CIB1 (unknown origin) preincubated for 20 mins followed by Alexa-CIB1 phage peptide addition and measured after 20 to 30 mins by TR-FRET assay. A general note: In TR-FRET formats the signal depends on donor and acceptor labels being close together.
Take `CC[C@H](C)[C@@H]1NC(=O)[C@H]([C@@H](C)O)NC(=O)[C@H](Cc2c[nH]c3ccccc23)NC(=O)[C@@H]2CCCN2C(=O)CNC(=O)[C@H]([C@@H](C)O)NC(=O)[C@H](Cc2ccc(O)cc2)NC(=O)CSC[C@H](C(N)=O)NC(=O)[C@H](Cc2c[nH]c3ccccc23)NC(=O)[C@H](CCCNC(=N)N)NC1=O`: the IC50 was 12 nM. Consider `CCCC[C@@H]1NC(=O)[C@H](Cc2ccc(O)cc2)N(C)C(=O)CSC[C@@H](C(N)=O)NC(=O)[C@H](Cc2c[nH]c3ccccc23)NC(=O)[C@H](CC(N)=O)NC(=O)[C@H]([C@@H](C)CC)NC(=O)[C@H](CC(C)C)NC(=O)[C@H](Cc2c[nH]c3ccccc23)NC(=O)[C@H](Cc2ccc(O)cc2)NC(=O)[C@@H]2CCCN2C(=O)[C@@H](CCC(C)C)NC1=O`, for which the IC50 came to 840 nM. The same measure for `CCCC[C@@H]1NC(=O)[C@H](Cc2ccc(O)cc2)N(C)C(=O)CSC[C@@H](C(N)=O)NC(=O)[C@H](Cc2c[nH]c3ccccc23)NC(=O)[C@@H](Cc2ccco2)NC(=O)[C@H]([C@@H](C)CC)NC(=O)[C@H](CC(C)C)NC(=O)[C@H](Cc2c[nH]c3ccccc23)NC(=O)[C@H](Cc2ccc(O)cc2)N(C)C(=O)[C@@H]2CCCN2C(=O)[C@H](CCC(N)=O)NC1=O`: 3900 nM; for `CC[C@H](C)[C@@H]1NC(=O)[C@H](CC(C)C)NC(=O)[C@H](Cc2c[nH]c3ccccc23)NC(=O)[C@H](Cc2ccc(O)cc2)NC(=O)[C@@H]2CCCN2C(=O)[C@H](CCC(N)=O)NC(=O)[C@H](CCCCN)NC(=O)[C@H](C)NC(=O)CSC[C@@H](C(N)=O)NC(=O)[C@H](Cc2c[nH]c3ccccc23)NC(=O)[C@H](CC(N)=O)NC1=O` ({CH2CO}-AKQPYWLINWC-NH2; thioether N-11): 2500 nM; for `CC[C@H](C)[C@@H]1NC(=O)[C@H](CC(C)C)NC(=O)[C@H](Cc2c[nH]c3ccccc23)NC(=O)[C@H](Cc2ccccc2)NC(=O)[C@@H]2CCCN2C(=O)[C@H](C)NC(=O)[C@H](C)NC(=O)[C@H](Cc2ccc(O)cc2)NC(=O)CSC[C@@H](C(N)=O)NC(=O)[C@H](Cc2c[nH]c3ccccc23)NC(=O)[C@H](CC(C)C)NC1=O` ({CH2CO}-YAAPFWLILWC-NH2; thioether N-11): 300 nM. For `CC[C@H](C)[C@@H]1NC(=O)[C@H](CC(C)C)NC(=O)[C@H](Cc2c[nH]c3ccccc23)NC(=O)[C@H](Cc2ccc(O)cc2)NC(=O)[C@@H]2CCCN2C(=O)[C@H](C)NC(=O)[C@H](C)NC(=O)[C@H](Cc2ccc(O)cc2)NC(=O)CSC[C@@H](C(N)=O)NC(=O)[C@H](Cc2c[nH]c3ccccc23)NC(=O)[C@H](C)NC1=O` ({CH2CO}-YAAPYWLIAWC-NH2; thioether N-11) the value was 820 nM; for `CC[C@H](C)[C@@H]1NC(=O)[C@H](CC(C)C)NC(=O)[C@H](Cc2c[nH]c3ccccc23)NC(=O)[C@H](Cc2ccc(O)cc2)N(C)C(=O)[C@@H]2CCCN2C(=O)[C@H](CCC(N)=O)NC(=O)[C@H](C)NC(=O)[C@H](Cc2ccc(O)cc2)NC(=O)CSC[C@@H](C(N)=O)NC(=O)[C@H](Cc2c[nH]c3ccccc23)NC(=O)[C@H](CC(C)C)NC1=O` ({CH2CO}-YAQP[NMeY]WLILWC-NH2; thioether N-11), 67 nM; for `CC[C@H](C)[C@@H]1NC(=O)[C@H](CC(C)C)NC(=O)[C@H](Cc2c[nH]c3ccccc23)NC(=O)[C@H](Cc2ccc(O)cc2)NC(=O)[C@@H]2CCCN2C(=O)[C@H](C)NC(=O)[C@H](CCCCN)NC(=O)[C@H](Cc2ccc(O)cc2)NC(=O)CSC[C@@H](C(N)=O)NC(=O)[C@H](Cc2c[nH]c3ccccc23)NC(=O)[C@H](CC(N)=O)NC1=O` ({CH2CO}-YKAPYWLINWC-NH2; thioether N-11), 40 nM. `CC[C@H](C)[C@@H]1NC(=O)[C@H](CC(C)C)NC(=O)[C@H](Cc2c[nH]c3ccccc23)NC(=O)[C@H](Cc2ccc(O)cc2)NC(=O)[C@H](C)NC(=O)[C@H](CCC(N)=O)NC(=O)[C@H](CCCCN)NC(=O)[C@H](Cc2ccc(O)cc2)NC(=O)CSC[C@@H](C(N)=O)NC(=O)[C@H](Cc2c[nH]c3ccccc23)NC(=O)[C@H](CC(N)=O)NC1=O` ({CH2CO}-YKQAYWLINWC-NH2; thioether N-11): the 50% inhibitory concentration (IC50) came out at 9 nM. The same measure for `CC[C@H](C)[C@@H]1NC(=O)[C@H](CC(C)C)NC(=O)[C@H](Cc2c[nH]c3ccccc23)NC(=O)[C@H](C)NC(=O)[C@@H]2CCCN2C(=O)[C@H](CCC(N)=O)NC(=O)[C@H](CCCCN)NC(=O)[C@H](Cc2ccc(O)cc2)NC(=O)CSC[C@@H](C(N)=O)NC(=O)[C@H](Cc2c[nH]c3ccccc23)NC(=O)[C@H](CC(N)=O)NC1=O` ({CH2CO}-YKQPAWLINWC-NH2; thioether N-11): 470 nM; for `CC[C@H](C)[C@@H]1NC(=O)[C@H](CC(C)C)NC(=O)[C@H](C)NC(=O)[C@H](Cc2ccc(O)cc2)NC(=O)[C@@H]2CCCN2C(=O)[C@H](CCC(N)=O)NC(=O)[C@H](CCCCN)NC(=O)[C@H](Cc2ccc(O)cc2)NC(=O)CSC[C@@H](C(N)=O)NC(=O)[C@H](Cc2c[nH]c3ccccc23)NC(=O)[C@H](CC(N)=O)NC1=O` ({CH2CO}-YKQPYALINWC-NH2; thioether N-11): 430 nM.

As for `CC[C@H](C)[C@@H]1NC(=O)[C@H](C)NC(=O)[C@H](Cc2c[nH]c3ccccc23)NC(=O)[C@H](Cc2ccc(O)cc2)NC(=O)[C@@H]2CCCN2C(=O)[C@H](CCC(N)=O)NC(=O)[C@H](CCCCN)NC(=O)[C@H](Cc2ccc(O)cc2)NC(=O)CSC[C@@H](C(N)=O)NC(=O)[C@H](Cc2c[nH]c3ccccc23)NC(=O)[C@H](CC(N)=O)NC1=O` ({CH2CO}-YKQPYWAINWC-NH2; thioether N-11), the IC50 was found to be 15 nM.

As to `CC(C)C[C@@H]1NC(=O)[C@H](Cc2c[nH]c3ccccc23)NC(=O)[C@H](Cc2ccc(O)cc2)NC(=O)[C@@H]2CCCN2C(=O)[C@H](CCC(N)=O)NC(=O)[C@H](CCCCN)NC(=O)[C@H](Cc2ccc(O)cc2)NC(=O)CSC[C@@H](C(N)=O)NC(=O)[C@H](Cc2c[nH]c3ccccc23)NC(=O)[C@H](CC(N)=O)NC(=O)[C@H](C)NC1=O` ({CH2CO}-YKQPYWLANWC-NH2; thioether N-11), the IC50 worked out at 170 nM. Turning to `CC[C@H](C)[C@@H]1NC(=O)[C@H](CC(C)C)NC(=O)[C@H](Cc2c[nH]c3ccccc23)NC(=O)[C@H](Cc2ccc(O)cc2)NC(=O)[C@@H]2CCCN2C(=O)[C@H](CCC(N)=O)NC(=O)[C@H](CCCCN)NC(=O)[C@H](Cc2ccc(O)cc2)NC(=O)CSC[C@@H](C(N)=O)NC(=O)[C@H](Cc2c[nH]c3ccccc23)NC(=O)[C@H](C)NC1=O` ({CH2CO}-YKQPYWLIAWC-NH2; thioether N-11), the half-inhibitory concentration (IC50) was determined as 76 nM.

With `CC[C@H](C)[C@@H]1NC(=O)[C@H](CC(C)C)NC(=O)[C@H](Cc2c[nH]c3ccccc23)NC(=O)[C@H](Cc2ccc(O)cc2)NC(=O)[C@@H]2CCCN2C(=O)[C@H](CCC(N)=O)NC(=O)[C@H](CCCCN)NC(=O)[C@H](Cc2ccc(O)cc2)NC(=O)CSC[C@@H](C(N)=O)NC(=O)[C@H](C)NC(=O)[C@H](CC(N)=O)NC1=O` ({CH2CO}-YKQPYWLINAC-NH2; thioether N-11), the IC50 stood at 7100 nM. The same measure for `CC[C@H](C)[C@@H]1NC(=O)[C@H](CC(C)C)NC(=O)[C@H](Cc2c[nH]c3ccccc23)N(C)C(=O)[C@H](Cc2ccc(O)cc2)NC(=O)[C@@H]2CCCN2C(=O)[C@H](CCC(N)=O)NC(=O)[C@H](CCCCN)NC(=O)[C@H](Cc2ccc(O)cc2)NC(=O)CSC[C@@H](C(N)=O)NC(=O)[C@H](Cc2c[nH]c3ccccc23)NC(=O)[C@H](CC(N)=O)NC1=O` ({CH2CO}-YKQPY[NMeW]LINWC-NH2; thioether N-11): 59 nM; for `CC[C@H](C)[C@@H]1NC(=O)[C@H](CCCNC(=N)N)NC(=O)[C@H](Cc2c[nH]c3ccccc23)NC(=O)[C@H]([C@@H](C)O)NC(=O)[C@H](CO)NC(=O)[C@H](CCC(N)=O)NC(=O)[C@H](CCC(N)=O)NC(=O)[C@H](Cc2ccc(O)cc2)NC(=O)CSC[C@@H](C(N)=O)NC(=O)[C@H](Cc2c[nH]c3ccccc23)NC(=O)[C@H](CC(N)=O)NC1=O` ({CH2CO}-YQQSTWRINWC-NH2; thioether N-11): 65 nM; for `CC[C@H](C)[C@@H]1NC(=O)[C@H](CC(N)=O)NC(=O)[C@H](Cc2c[nH]c3ccccc23)NC(=O)[C@H]([C@@H](C)CC)NC(=O)[C@@H]2CCCN2C(=O)[C@H]([C@@H](C)O)NC(=O)[C@H]([C@@H](C)O)NC(=O)[C@H](Cc2ccc(O)cc2)NC(=O)CSC[C@@H](C(N)=O)NC(=O)[C@H](Cc2ccccc2)NC(=O)[C@H](CCCNC(=N)N)NC1=O` ({CH2CO}-YTTPIWNIRFC-NH2; thioether N-11): 15 nM.

For the compound `CC[C@H](C)[C@@H]1NC(=O)[C@H](CC(C)C)NC(=O)[C@H](Cc2c[nH]c3ccccc23)N(C)C(=O)[C@H](Cc2ccc(O)cc2)NC(=O)[C@@H]2CCCN2C(=O)[C@H](CCC(N)=O)NC(=O)[C@H](C)N(C)C(=O)[C@H](Cc2ccc(O)cc2)NC(=O)CSC[C@@H](C(N)=O)NC(=O)[C@H](Cc2c[nH]c3ccccc23)NC(=O)[C@H](CC(N)=O)NC1=O` ({CH2CO}-Y[NMeA]QPY[NMeW]LINWC-NH2; thioether N-11), the IC50 was found to be 54 nM.

Regarding `CC[C@H](C)[C@@H]1NC(=O)[C@H](CC(C)C)NC(=O)[C@H](Cc2c[nH]c3ccccc23)N(C)C(=O)[C@H](Cc2ccc(O)cc2)NC(=O)[C@@H]2CCCN2C(=O)[C@H](CCC(N)=O)NC(=O)[C@H](C)N(C)C(=O)[C@H](Cc2ccc(O)cc2)NC(=O)CSC[C@@H](C(N)=O)NC(=O)[C@H](Cc2c[nH]c3ccccc23)NC(=O)[C@H](Cc2ccco2)NC1=O` ({CH2CO}-Y[NMeA]QPY[NMeW]LI[Ala(2-furyl)]WC-NH2; thioether N-11), the IC50 stood at 190 nM.

Take `CC[C@H](C)[C@@H]1NC(=O)[C@H](CC(C)C)NC(=O)[C@H](Cc2c[nH]c3ccccc23)NC(=O)[C@H](Cc2ccc(O)cc2)NC(=O)[C@@H]2CCCN2C(=O)[C@H](CCC(C)C)NC(=O)[C@H](C)N(C)C(=O)[C@H](Cc2ccc(O)cc2)NC(=O)CSC[C@@H](C(N)=O)NC(=O)[C@H](Cc2c[nH]c3ccccc23)NC(=O)[C@H](Cc2ccco2)NC1=O` ({CH2CO}-Y[NMeA][hLeu]PYWLI[Ala(2-furyl)]WC-NH2; thioether N-11): the 50% inhibitory concentration (IC50) was determined as 4200 nM.
